According to patent publication US10813933B2, “Therapeutic agent for lung cancer that has acquired EGFR-TKI resistance” (JAPANESE FOUNDATION FOR CANCER RESEARCH, priority 2016, dated 2020):
“And” between values parts separate entries of the source, which are not always exact repeats. Identical values can stand only once. Like-named read-outs stand apart in the source and are kept apart here.

Key:
[1] = biological target: EGFR L858R mutant expressing Ba/F3 cells (Homo sapiens, UniProt P00533, L858R, cells depend on it); assay: CellTiter-Glo cell viability, Ba/F3 EGFR mutant; assay type: cell-based, mouse; details: read-out: IC50 (nM) L858R
Description: (§1) Ba/F3 mutation lines were prepared in the same manner as above to determine the cell viabilities by CellTiter-Glo assay.

[2] = biological target: EGFR T790M/L858R mutant expressing Ba/F3 cells (Homo sapiens, UniProt P00533, T790M/L858R, cells depend on it); assay: CellTiter-Glo cell viability, Ba/F3 EGFR mutant; assay type: cell-based, mouse; details: Table 5, ALK inhibitors, read-out: IC50 (nM) T/L
Description: as §1

[3] = test system: EGFR mutant expressing Ba/F3 cells; assay: Cell viability, ALK inhibitors on Ba/F3 with any of the EGFR mutants (summary statements); assay type: cell-based, mouse; details: FIG. 6A-D, FIG. 7A-D
[4] = test system: EGFR signal transductions in EGFR mutants expressing Ba/F3 cells; assay: Western blotting of EGFR signal transductions in EGFR mutants expressing Ba/F3 cells (summary statements); assay type: cell-based, mouse; details: FIG. 8A-D; L858R-based lines, not shown
[5] = test system: phosphorylation of EGFR and downstream signal transductions in parental line PC9; assay: Western blotting of EGFR signal, PC9; assay type: cell-based, human; details: FIG. 10A, 10D
[6] = test system: phosphorylation of EGFR and downstream signal transductions in T790M/exon 19 deletion mutant expressing PC9 cell line; assay: Western blotting of EGFR signal, PC9 T790M; assay type: cell-based, human; details: FIG. 10B, 10D
[7] = test system: phosphorylation of EGFR and downstream signal transductions in triple-mutant expressing PC9 cell line; assay: Western blotting of EGFR signal, PC9 triple-mutant; assay type: cell-based, human; details: FIG. 10C, 10D
[8] = biological target: EGFR exon 19 deletion mutant (del19) expressing Ba/F3 cells (Homo sapiens, UniProt P00533, DEL746-750, cells depend on it); assay: CellTiter-Glo cell viability, Ba/F3 EGFR mutant
[9] = biological target: EGFR T790M/exon 19 deletion mutant (T790M/del19) expressing Ba/F3 cells (Homo sapiens, UniProt P00533, DEL746-750/T790M, cells depend on it); assay: CellTiter-Glo cell viability, Ba/F3 EGFR mutant
[10] = test system: exon 19 deletion mutation; details: cited from earlier work
[11] = test system: adenocarcinoma; details: cited from earlier work
[12] = test system: phosphorylation of EGFR and downstream signal transductions in T790M/del19 Ba/F3 cells; assay: Western blotting of EGFR phosphorylation and downstream signal; assay type: cell-based, mouse; details: 10, 100, 1000 nM; FIG. 2E
[13] = test system: phosphorylation of EGFR and downstream signal transductions in L858R mutant expressing Ba/F3 cells; assay: as above; assay type: cell-based, mouse; details: FIG. 4A
[14] = test system: phosphorylation of EGFR and downstream signal transductions in T790M/L858R mutant expressing Ba/F3 cells; assay: as above; assay type: cell-based, mouse; details: FIG. 4B
[15] = test system: human lung cancer cell line PC9 (EGFR exon 19 deletion mutant); assay type: cell-based
[16] = test system: T790M/exon 19 deletion mutant expressing PC9 cell line; assay type: cell-based, human
[17] = test system: A431 wherein EGFR is amplified; assay: Cell growth of wild type EGFR expressing cells; assay type: cell-based, human; details: FIG. 11
Description: The analysis was carried out using A431 wherein EGFR is amplified and A549 and H460 which have a mutation at K-ras. A431 is a cell line derived from a human epithelioid cell cancer and A549 and H460 are cell lines derived from human lung cancers. Note that, EGFR has no mutations despite A431 being amplified, and EGFR also has no mutations in A549 and H460.

[18] = test system: EGFR T790M/exon19 deletion mutant expressing PC9 cells; assay: Balb-c nu/nu mice transplanted with EGFR mutant expressing PC9; assay type: in vivo, mouse
Description: The tumor volume was measured in the same manner as above.
The results are shown from 2 mice per group.

[19] = test system: Ba/F3 cells expressing the T790M/del19 mutant; assay: SCID mice transplanted with EGFR mutant expressing Ba/F3; details: 50 mg/kg osimertinib, 75 mg/kg brigatinib, oral once daily; FIG. 12B
[20] = read-out: IC50 (nM) Del19, Table 4, ALK inhibitors
[21] = read-out: IC50 (nM) T/D, Table 4, ALK inhibitors, T790M/del19

EGFR exon 19 deletion mutant (del19) expressing Ba/F3 cells, sequence (P00533 with tags, fused parts or gaps DEL746-750): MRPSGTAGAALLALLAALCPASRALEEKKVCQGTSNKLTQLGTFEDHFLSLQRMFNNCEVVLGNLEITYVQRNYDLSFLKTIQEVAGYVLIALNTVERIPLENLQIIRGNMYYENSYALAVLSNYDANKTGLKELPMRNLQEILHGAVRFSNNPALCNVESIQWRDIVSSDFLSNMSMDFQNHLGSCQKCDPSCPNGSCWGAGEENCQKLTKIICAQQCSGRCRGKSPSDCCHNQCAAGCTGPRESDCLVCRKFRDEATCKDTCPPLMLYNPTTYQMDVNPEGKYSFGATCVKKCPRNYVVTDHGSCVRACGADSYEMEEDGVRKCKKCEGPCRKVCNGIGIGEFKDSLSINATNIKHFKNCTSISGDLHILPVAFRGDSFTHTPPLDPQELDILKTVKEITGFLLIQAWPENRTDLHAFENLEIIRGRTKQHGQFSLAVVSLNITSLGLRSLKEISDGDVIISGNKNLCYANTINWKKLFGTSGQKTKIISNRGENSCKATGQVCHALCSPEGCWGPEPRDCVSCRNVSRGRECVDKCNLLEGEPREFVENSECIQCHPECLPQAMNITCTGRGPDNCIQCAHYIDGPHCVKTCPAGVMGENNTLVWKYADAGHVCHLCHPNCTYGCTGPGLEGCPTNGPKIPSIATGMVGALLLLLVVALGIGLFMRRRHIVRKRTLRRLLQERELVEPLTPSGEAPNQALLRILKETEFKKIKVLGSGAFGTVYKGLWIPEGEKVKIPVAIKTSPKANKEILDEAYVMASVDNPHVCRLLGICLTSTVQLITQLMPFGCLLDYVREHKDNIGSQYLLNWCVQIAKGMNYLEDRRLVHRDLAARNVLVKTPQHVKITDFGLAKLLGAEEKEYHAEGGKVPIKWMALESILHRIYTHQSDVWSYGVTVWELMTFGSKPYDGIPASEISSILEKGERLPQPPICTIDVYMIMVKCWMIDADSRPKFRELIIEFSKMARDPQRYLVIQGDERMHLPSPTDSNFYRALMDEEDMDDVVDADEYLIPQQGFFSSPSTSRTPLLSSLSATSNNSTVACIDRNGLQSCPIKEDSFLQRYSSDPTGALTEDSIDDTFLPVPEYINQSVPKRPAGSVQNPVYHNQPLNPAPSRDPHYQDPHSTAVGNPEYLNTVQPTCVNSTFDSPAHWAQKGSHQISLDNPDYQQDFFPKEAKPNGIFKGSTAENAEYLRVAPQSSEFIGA
EGFR L858R mutant expressing Ba/F3 cells, sequence (P00533 whole entry L858R): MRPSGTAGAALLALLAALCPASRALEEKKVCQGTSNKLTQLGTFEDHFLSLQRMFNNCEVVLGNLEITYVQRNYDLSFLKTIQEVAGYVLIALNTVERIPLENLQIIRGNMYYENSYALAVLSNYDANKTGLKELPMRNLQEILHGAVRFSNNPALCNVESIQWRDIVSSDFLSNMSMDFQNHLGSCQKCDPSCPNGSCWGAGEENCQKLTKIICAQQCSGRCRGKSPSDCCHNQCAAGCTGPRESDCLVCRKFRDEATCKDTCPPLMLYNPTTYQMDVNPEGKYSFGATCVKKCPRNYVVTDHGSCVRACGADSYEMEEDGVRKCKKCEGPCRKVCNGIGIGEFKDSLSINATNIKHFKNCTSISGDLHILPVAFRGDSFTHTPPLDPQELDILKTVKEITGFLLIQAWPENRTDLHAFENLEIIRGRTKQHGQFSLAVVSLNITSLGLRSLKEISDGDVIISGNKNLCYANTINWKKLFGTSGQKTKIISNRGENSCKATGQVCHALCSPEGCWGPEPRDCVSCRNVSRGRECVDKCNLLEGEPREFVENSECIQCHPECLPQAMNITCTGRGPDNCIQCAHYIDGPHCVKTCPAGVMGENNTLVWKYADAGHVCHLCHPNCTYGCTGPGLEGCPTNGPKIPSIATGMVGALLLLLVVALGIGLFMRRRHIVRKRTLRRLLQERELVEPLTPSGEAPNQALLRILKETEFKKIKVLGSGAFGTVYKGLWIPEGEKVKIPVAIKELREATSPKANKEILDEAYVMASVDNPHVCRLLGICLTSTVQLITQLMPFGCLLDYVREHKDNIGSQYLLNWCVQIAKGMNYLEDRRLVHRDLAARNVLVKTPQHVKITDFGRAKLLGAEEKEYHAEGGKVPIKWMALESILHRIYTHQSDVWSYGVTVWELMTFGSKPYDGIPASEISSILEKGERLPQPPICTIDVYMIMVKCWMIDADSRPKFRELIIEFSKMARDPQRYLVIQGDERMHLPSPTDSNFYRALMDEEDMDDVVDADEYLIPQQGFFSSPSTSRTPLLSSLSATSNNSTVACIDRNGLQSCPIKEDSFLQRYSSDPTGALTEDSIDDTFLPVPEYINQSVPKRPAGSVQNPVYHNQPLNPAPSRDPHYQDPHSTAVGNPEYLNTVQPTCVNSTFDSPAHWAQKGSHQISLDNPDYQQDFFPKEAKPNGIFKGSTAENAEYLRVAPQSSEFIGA
EGFR T790M/L858R mutant expressing Ba/F3 cells, sequence (P00533 whole entry T790M/L858R): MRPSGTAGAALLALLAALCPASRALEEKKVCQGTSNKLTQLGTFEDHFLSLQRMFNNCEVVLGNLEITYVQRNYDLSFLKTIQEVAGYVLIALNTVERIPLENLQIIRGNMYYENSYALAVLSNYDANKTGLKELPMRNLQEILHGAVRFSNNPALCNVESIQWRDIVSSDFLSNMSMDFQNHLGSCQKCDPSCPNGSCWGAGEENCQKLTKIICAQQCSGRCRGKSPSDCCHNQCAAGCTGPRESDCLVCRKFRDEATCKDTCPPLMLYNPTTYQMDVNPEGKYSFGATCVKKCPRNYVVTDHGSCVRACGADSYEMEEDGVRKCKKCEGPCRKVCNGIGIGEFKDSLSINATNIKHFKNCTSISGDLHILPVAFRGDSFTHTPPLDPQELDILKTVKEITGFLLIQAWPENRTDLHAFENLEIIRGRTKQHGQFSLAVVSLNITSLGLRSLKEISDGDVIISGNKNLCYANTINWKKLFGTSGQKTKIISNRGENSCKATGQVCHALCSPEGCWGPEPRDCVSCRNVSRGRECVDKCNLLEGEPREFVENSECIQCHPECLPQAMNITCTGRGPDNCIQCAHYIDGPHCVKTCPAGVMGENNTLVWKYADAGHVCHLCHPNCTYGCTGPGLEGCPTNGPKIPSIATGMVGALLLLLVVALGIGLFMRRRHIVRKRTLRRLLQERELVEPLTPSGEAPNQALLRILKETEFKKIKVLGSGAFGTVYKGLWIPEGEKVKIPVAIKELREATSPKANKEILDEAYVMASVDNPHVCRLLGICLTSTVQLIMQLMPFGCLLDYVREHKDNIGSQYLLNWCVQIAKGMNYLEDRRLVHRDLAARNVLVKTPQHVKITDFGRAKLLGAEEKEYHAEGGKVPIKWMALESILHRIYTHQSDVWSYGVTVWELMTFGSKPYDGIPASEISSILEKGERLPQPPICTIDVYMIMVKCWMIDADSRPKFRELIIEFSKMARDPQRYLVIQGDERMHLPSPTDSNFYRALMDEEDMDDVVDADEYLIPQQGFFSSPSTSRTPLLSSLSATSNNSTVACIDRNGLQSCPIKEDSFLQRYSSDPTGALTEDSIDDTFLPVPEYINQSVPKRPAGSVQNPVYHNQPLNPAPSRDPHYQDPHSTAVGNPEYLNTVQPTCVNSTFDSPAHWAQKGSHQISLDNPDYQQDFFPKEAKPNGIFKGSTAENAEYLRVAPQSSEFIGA
EGFR T790M/exon 19 deletion mutant (T790M/del19) expressing Ba/F3 cells, sequence (P00533 with tags, fused parts or gaps DEL746-750/T790M): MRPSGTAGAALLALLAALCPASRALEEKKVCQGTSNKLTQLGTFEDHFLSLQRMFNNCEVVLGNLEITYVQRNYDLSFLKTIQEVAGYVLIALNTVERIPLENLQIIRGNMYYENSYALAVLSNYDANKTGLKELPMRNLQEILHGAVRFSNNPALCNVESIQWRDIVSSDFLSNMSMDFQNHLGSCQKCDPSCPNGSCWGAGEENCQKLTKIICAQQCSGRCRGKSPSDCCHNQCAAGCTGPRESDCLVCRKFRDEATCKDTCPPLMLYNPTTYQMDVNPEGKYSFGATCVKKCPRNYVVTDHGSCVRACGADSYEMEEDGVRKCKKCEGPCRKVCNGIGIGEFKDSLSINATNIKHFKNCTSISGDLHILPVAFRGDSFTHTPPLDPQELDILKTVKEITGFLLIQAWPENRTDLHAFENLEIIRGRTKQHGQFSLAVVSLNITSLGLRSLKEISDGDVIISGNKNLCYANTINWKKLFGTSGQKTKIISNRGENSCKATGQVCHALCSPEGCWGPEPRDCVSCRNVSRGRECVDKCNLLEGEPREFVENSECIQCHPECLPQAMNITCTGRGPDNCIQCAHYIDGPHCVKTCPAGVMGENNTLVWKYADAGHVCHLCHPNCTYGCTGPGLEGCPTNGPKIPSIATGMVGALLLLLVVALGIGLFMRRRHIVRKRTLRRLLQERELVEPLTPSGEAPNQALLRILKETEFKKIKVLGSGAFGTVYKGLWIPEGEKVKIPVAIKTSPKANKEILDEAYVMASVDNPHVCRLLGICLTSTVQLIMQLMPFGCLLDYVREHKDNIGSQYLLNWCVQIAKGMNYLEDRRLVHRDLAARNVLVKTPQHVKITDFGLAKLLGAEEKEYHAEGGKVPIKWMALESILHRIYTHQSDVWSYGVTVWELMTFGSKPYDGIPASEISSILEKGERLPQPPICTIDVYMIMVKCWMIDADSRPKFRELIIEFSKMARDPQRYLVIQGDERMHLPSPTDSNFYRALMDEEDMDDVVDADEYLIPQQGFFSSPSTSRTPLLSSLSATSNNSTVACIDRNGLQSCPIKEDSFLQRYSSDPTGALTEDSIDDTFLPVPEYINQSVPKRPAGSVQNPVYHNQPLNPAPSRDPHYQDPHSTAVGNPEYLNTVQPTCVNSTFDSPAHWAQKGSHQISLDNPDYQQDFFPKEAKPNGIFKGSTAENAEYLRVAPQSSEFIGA

## COc1cc(N2CCC(N(C)C)CC2)ccc1Nc1ncc(Cl)c(Nc2ccccc2P(C)(C)=O)n1 [AP26113-analogue, AP26113-analog]
[1]; Table 5, ALK inhibitors
  GI50: 92.1 nM
[2]
  GI50: 36 nM
[3]
  cell growth suppression effect on Ba/F3 with EGFR mutant having any of the mutations (in words): strong cell growth suppression effects
[4]
  inhibitory activity against the EGFR signal transductions (in words): demonstrated the inhibitory activity against the EGFR signal transductions
[5]
  suppression of phosphorylation of EGFR and downstream signal (in words): the effect was weaker compared to afatinib
[6]
  suppression of phosphorylation of EGFR and downstream signal (in words): equal suppression effect to brigatinib
[7]
  suppression of phosphorylation of EGFR and downstream signal (in words): demonstrated the suppression effects on the phosphorylation of EGFR
[8]; [20]
  GI50: 36.9 nM
[9]; [21]
  GI50: 139 nM

## COc1cc(N2CCC(N3CCN(C)CC3)CC2)ccc1Nc1ncnc(Nc2ccccc2S(=O)(=O)C(C)C)n1 [ASP3026]
[1]; Table 5, ALK inhibitors
  GI50: 948 nM
[2]
  GI50: 1690 nM
[3]
  cell growth suppression effect on Ba/F3 with EGFR mutant having any of the mutations (in words): did not substantially demonstrate the cell growth suppression effect
[4]
  inhibitory activity against the EGFR signal transductions (in words): did not substantially demonstrate the inhibitory effect on the EGFR signal transductions even when treated at a high concentration of 1 μM
[8]; [20]
  GI50: 450 nM
[9]; [21]
  GI50: 2170 nM

## COc1cc(N2CCC(N)CC2)ccc1Nc1ncc(Cl)c(-c2c[nH]c3ccccc23)n1 [AZD3463]
[1]; Table 5, ALK inhibitors
  GI50: 287 nM
[2]
  GI50: 184 nM
[3]
  cell growth suppression effect on Ba/F3 with EGFR mutant having any of the mutations (in words): strong cell growth suppression effects
[5]
  suppression of phosphorylation of EGFR and downstream signal (in words): confirmed to have the effect of suppressing the phosphorylation of EGFR
[6]
  suppression of phosphorylation of EGFR and downstream signal (in words): confirmed to have the effect of suppressing the phosphorylation of EGFR
[7]
  suppression of phosphorylation of EGFR and downstream signal (in words): had the effect of suppressing the phosphorylation of the EGFR signal transductions
[8]; [20]
  GI50: 90 nM
[9]; [21]
  GI50: 175 nM

## O=C(Nc1nccs1)C(c1cc(F)ccc1O)N1Cc2ccccc2C1=O (centres unmarked) [EAI045]
[10]
  effectiveness on the exon 19 deletion mutation (in words): not effective on the exon 19 deletion mutation

## COc1cc(N2CCC(N3CCN(C)CC3)CC2)ccc1Nc1ncc(Cl)c(Nc2ccccc2S(=O)(=O)C(C)C)n1 [TAE684]
[3]
  cell growth suppression effect on Ba/F3 with EGFR mutant having any of the mutations (in words): did not substantially demonstrate the cell growth suppression effect
[4]
  inhibitory activity against the EGFR signal transductions (in words): did not substantially demonstrate the inhibitory effect on the EGFR signal transductions even when treated at a high concentration of 1 μM

## COc1cc(N2CCC(N3CCN(C)CC3)CC2)ccc1Nc1ncc(Cl)c(Nc2ccccc2P(C)(C)=O)n1 [brigatinib]
[1]; egfr l858r mutant expressing ba/f3 cells
  GI50: 207 nM and 133 nM
[8]; read-out: IC50 (nM) Del19, egfr exon 19 deletion mutant (del19) expressing ba/f3 cells
  GI50: 43.7 nM
[8]; read-out: IC50 (nM) del19, egfr exon 19 deletion mutant (del19) expressing ba/f3 cells
  GI50: 43.7 nM
[9]; read-out: IC50 (nM) T790M/del19, egfr t790m/exon 19 deletion mutant (t790m/del19) expressing ba/f3 cells
  GI50: 150 nM
[9]; read-out: IC50 (nM) T/D, egfr t790m/exon 19 deletion mutant (t790m/del19) expressing ba/f3 cells
  GI50: 150 nM

## Cc1cc(Nc2ncc(Cl)c(Nc3ccccc3S(=O)(=O)C(C)C)n2)c(OC(C)C)cc1C1CCNCC1 [ceritinib]
[1]; Table 5, ALK inhibitors
  GI50: 1160 nM
[2]
  GI50: 685 nM
[3]
  cell growth suppression effect on Ba/F3 with EGFR mutant having any of the mutations (in words): did not substantially demonstrate the cell growth suppression effect
[4]
  inhibitory activity against the EGFR signal transductions (in words): did not substantially demonstrate the inhibitory effect on the EGFR signal transductions even when treated at a high concentration of 1 μM
[8]; [20]
  GI50: 524 nM

## COc1cc2ncnc(Nc3ccc(F)c(Cl)c3)c2cc1OCCCN1CCOCC1 [gefitinib]
[11]; EGFR gene mutation-positive group
  PFS (progression-free survival): 9.5 months
[11]; mutation negative group
  PFS (progression-free survival): 1.5 months

## C=CC(=O)Nc1cc(Nc2nccc(-c3cn(C)c4ccccc34)n2)c(OC)cc1N(C)CCN(C)C [osimertinib]
[12]
  suppression of phosphorylation of EGFR and downstream signal (in words): strongly suppressed the phosphorylation of EGFR
[13]
  suppression of phosphorylation of EGFR and downstream signal (in words): suppression effect, despite being weaker than afatinib
[14]
  suppression of phosphorylation of EGFR and downstream signal (in words): strongest suppression effect
[15]
  cell growth suppression effect (in words): demonstrated the cell growth suppression effects
[16]
  cell growth suppression effect (in words): extremely strong cell growth suppression effect
[5]
  suppression of phosphorylation of EGFR and downstream signal (in words): also very strongly suppressed the phosphorylation
[6]
  suppression of phosphorylation of EGFR and downstream signal (in words): demonstrated the effects of suppressing the phosphorylation
[7]
  suppression of phosphorylation of EGFR and downstream signal (in words): neither of afatinib, osimertinib, or gefitinib demonstrated the suppression effect
[17]
  cell growth suppression (in words): suppress the cell growth
[18]; 50 mg/kg osimertinib, 75 mg/kg brigatinib, oral once daily, FIG. 13A
  effect on the tumor growth (tumor volume, in words): notable effect on the tumor growth
[18]; FIG. 13B
  survival (Kaplan-Meier, in words): alive during the observation period
[19]
  tumor growth suppression effect (tumor volume, in words): had the effect
